Target: MAPK14 (human) (UniProt Q16539)
Assay: Apoptotic Activity (Eosinophils)
Conditions: concentration not given here

Chain of MAPK14 (human) (Q16539 whole entry, looked up): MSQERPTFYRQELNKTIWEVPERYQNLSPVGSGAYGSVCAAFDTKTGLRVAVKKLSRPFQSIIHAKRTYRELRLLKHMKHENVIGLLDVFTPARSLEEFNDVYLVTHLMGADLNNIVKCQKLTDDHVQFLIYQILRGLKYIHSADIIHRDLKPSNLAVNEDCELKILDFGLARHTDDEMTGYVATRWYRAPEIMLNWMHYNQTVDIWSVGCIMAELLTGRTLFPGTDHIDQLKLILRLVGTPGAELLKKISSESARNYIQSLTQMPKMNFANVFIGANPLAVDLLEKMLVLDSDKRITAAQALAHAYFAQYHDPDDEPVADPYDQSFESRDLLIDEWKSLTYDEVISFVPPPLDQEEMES

| SMILES | apoptosis [%] |
| --- | --- |
| CC(C(=O)O)c1ccc(-c2ccccc2)c(F)c1 (stereo not drawn) | 32.5 |
| CS(=O)(=O)Nc1cc2c(cc1-c1ccc(F)c(S)c1F)C(=O)CC2 | 28.9 |
| COc1ccc2c(c1)c(CC(=O)O)c(C)n2C(=O)c1ccc(Cl)cc1 | 27.7 |

Reference: the Kinase Knowledgebase extract (Sharma et al. 2016)
